Experimental data from article PMC8591201, “Anti-Tumor Activity of AZD4547 Against NTRK1 Fusion Positive Cancer Cells Through Inhibition of NTRKs” (Frontiers in Oncology, 2021).

Columns and labels:
Assay in all cases: cells
Parameters in all cases: Anti-proliferation, 10-point dose response, CellTiter-Glo luminescence (MTT stated for KM12(Luc)), GI50 fitted in Prism
MDA-MB-453 = conditions: Homo sapiens, MDA-MB-453, 72 h, read-out: GI50 (µM) a
MDA-MB-468 = conditions: Homo sapiens, MDA-MB-468, 72 h, read-out: GI50 (µM) a
U251 = conditions: Homo sapiens, U-251, 72 h, read-out: GI50 (µM) a
CAPAN-1 = conditions: Homo sapiens, CAPAN-1, 72 h, read-out: GI50 (µM) a

Question: With COc1cc(CCc2cc(NC(=O)c3ccc(N4C[C@@H](C)N[C@@H](C)C4)cc3)n[nH]2)cc(OC)c1 [AZD4547] as the compound, how does the GI50 (MDA-MB-453) read?
Answer: 5.36 µM

Question: And the GI50 (MDA-MB-468)?
Answer: 11.5 µM

Question: And the GI50 (U251)?
Answer: 11.6 µM

Question: What about the GI50 (CAPAN-1) of the same compound?
Answer: 17.5 µM
